Results on 14 compounds are retold here after ChEMBL document CHEMBL5120808, “6-Aryl-quinazolines as novel GABAB receptor positive allosteric modulators” (Bioorg Med Chem Lett, 2022).

The source made the active and inactive calls.

A short description of series [1]: Metabolic stability in human assessed as parent compound remaining. The format is ADME.
A short description of series [2]: Metabolic stability in mouse assessed as parent compound remaining. Type of series: ADME.
A short description of series [3]: Metabolic stability in rat assessed as parent compound remaining. The format is ADME.
The target in the next series is GABA-B receptor (Homo sapiens, UniProt O75899+Q9UBS5). The series can be described thus: Positive allosteric modulation of GABA-B receptor (unknown origin) assessed as stimulation of [35S]GTPgammaS binding by [35S]GTPgammaS binding assay. The format is functional. On the technique in general: GTPγS resists hydrolysis and so accumulates on activated G proteins.
Chain of GABA-B receptor (Q9UBS5 whole entry): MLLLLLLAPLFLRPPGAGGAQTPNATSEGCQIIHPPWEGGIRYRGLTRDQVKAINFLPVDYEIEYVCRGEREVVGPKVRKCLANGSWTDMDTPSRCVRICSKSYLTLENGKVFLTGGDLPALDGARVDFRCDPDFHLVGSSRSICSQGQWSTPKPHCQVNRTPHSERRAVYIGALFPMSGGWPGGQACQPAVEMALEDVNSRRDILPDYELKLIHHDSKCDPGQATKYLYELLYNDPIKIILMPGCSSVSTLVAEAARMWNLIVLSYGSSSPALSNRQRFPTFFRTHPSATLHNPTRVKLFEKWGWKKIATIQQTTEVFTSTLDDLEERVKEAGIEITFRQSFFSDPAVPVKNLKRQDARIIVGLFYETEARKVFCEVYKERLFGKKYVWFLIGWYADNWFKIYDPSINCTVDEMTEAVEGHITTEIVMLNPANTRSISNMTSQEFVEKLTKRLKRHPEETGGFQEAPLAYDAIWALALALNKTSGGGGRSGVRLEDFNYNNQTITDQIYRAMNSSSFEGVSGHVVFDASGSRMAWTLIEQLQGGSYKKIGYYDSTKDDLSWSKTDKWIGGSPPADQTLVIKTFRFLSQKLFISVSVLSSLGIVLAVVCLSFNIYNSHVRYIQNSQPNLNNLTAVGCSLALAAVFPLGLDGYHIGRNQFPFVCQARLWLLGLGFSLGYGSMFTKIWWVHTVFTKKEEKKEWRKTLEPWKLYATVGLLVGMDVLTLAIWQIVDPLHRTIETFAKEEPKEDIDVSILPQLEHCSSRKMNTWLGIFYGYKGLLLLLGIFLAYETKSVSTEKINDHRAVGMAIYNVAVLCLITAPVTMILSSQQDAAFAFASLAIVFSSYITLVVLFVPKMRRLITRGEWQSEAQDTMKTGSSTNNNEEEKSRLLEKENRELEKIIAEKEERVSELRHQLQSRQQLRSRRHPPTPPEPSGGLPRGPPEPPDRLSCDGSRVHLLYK
Chain of GABA-B receptor (O75899 whole entry): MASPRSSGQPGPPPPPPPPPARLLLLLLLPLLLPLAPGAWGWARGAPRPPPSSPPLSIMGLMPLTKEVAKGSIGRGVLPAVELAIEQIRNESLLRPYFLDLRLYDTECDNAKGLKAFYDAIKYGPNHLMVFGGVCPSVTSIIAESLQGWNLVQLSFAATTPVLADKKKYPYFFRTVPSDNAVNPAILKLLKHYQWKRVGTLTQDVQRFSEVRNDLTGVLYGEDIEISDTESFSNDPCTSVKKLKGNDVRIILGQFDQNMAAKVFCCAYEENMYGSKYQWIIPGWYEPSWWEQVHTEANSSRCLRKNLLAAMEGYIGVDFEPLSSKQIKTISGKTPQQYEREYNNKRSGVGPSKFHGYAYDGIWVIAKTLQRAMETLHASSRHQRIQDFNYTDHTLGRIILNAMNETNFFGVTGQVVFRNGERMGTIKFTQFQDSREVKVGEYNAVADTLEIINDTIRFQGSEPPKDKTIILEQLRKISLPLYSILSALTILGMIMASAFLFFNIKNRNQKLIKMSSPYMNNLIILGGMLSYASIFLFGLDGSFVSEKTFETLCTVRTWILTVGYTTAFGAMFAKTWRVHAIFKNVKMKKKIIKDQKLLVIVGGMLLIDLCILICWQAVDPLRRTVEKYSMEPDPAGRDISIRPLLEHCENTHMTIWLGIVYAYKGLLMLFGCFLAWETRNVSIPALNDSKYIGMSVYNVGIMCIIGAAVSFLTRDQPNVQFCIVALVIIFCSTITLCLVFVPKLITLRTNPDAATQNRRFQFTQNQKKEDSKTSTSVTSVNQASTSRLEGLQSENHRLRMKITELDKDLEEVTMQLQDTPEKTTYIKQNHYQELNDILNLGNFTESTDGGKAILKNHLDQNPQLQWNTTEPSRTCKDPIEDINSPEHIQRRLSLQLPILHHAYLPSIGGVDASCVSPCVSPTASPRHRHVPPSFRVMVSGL
The subject of series [4] is Mus musculus. The series can be described thus: Potentiation of baclofen induced skeletal muscle relaxation in po dosed NMRI mouse assessed as effective dose by Litchfield-Wilcoxon method. Type of series: functional.
Series [5] can be described thus: AUC (0 to 24 hrs) in NMRI mouse brain at 10 mg/kg, po measured up to 24 hrs. The format is ADME, organism-based. Also on record: time < 24 hrs, dose 10 mg/kg, route po.
Series [6] in a line: AUC (0 to 24 hrs) in NMRI mouse plasma at 10 mg/kg, po measured up to 24 hrs. Type of series: ADME, organism-based. Set-up: time < 24 hrs, dose 10 mg/kg, route po.
Series [7] can be described thus: Half life in NMRI mouse brain at 10 mg/kg, po measured up to 24 hrs. Type of series: ADME, organism-based.
Series [8] can be described thus: Cmax in NMRI mouse brain at 10 mg/kg, po measured up to 24 hrs. Type of series: ADME, organism-based. Set-up: time < 24 hrs, dose 10 mg/kg, route po.
A short description of series [9]: Tmax in NMRI mouse plasma at 10 mg/kg, po measured up to 24 hrs. The format is ADME, organism-based.
Series [10] has as its system Mus musculus. The series can be described thus: Potentiation of baclofen induced skeletal muscle relaxation in NMRI mouse at 3 to 30 mg/kg, po by traction test. The format is functional, organism-based. Particulars: dose 3-30 mg/kg.
Series [11] is described as follows: Tmax in NMRI mouse brain at 10 mg/kg, po measured up to 24 hrs. Type of series: ADME, organism-based.
Series [12] is described as follows: Cmax in NMRI mouse plasma at 10 mg/kg, po measured up to 24 hrs. Type of series: ADME, organism-based. Also on record: dose 10 mg/kg, time < 24 hrs, route po.
The subject of series [13] is Mus musculus. The series can be described thus: Potentiation of baclofen induced loss of righting reflex in po dosed NMRI mouse assessed as effective dose by Litchfield-Wilcoxon method. Type of series: functional.

In the case of `Cc1nc(N[C@@H]2C[C@H]3CC[C@@H]2C3)c2cc(-c3cccc(C(F)(F)F)c3)ccc2n1`, the Stability came to 75% in series [1], 41% in series [2] and 41% in series [3]. Further, at GABA-B receptor, the EC50 (usually the concentration at which the effect is half-maximal) was determined as 142 nM.
In the case of `Clc1cc(Cl)cc(-c2ccc3nc(Cl)nc(N[C@@H]4C[C@H]5CC[C@@H]4C5)c3c2)c1`, the Stability came to 85% in series [1], 62% in [2] and 76% in series [3].
With `Clc1ccc(-c2ccc3nc(Cl)nc(N[C@@H]4C[C@H]5CC[C@@H]4C5)c3c2)cc1`, the Stability in series [1] came out at 46%; in series [2] it was 40%; in [3], 85%. The ED50 (as a rule, the dose that gives a 50% effect, or the effect in half of the subjects) in the series on Mus musculus [4] was found to be 25.6 mg/kg. For the same compound, the EC50 on GABA-B receptor is 208 nM.
On the same counts, the results for `Cc1nc(N[C@@H]2C[C@H]3CC[C@@H]2C3)c2cc(-c3ccc(Cl)cc3)ccc2n1` are 47%, 39%, 49%, 12.7 mg/kg and 444 nM.
Consider `Cc1ncc(-c2ccc(C(F)(F)F)cc2)c(N[C@@H]2C[C@H]3CC[C@@H]2C3)n1`, for which the Stability is given as 65% in [1], 42% in series [2] and 24% in series [3].
As for `FC(F)(F)c1ccc(-c2ccc3nc(Cl)nc(N[C@@H]4C[C@H]5CC[C@@H]4C5)c3c2)cc1`, the figures for the AUC(0-t) at 24 h in series [5] and in series [6] were 852 ng·h/mL and 4660 ng·h/mL, respectively. The Stability in series [1] is on record as 73%; in series [2], 95%; in series [3], 84%. Moreover, the half-life (commonly the time needed for the level to fall by half in the phase considered) in series [7] was 8.94 h. Further, the maximum concentration (Cmax) (as a rule, the highest concentration seen after dosing) in [8] came to 100 ng/mL; in series [12], 586 ng/mL. In addition, the Tmax (as a rule, the time at which the peak concentration occurs) was 1 h in series [9] and 2 h in series [11]. The outcome in the series on Mus musculus [10] was Active. The ED50 is 8.1 mg/kg in the series with Mus musculus [4] and 2.9 mg/kg with Mus musculus [13]. Besides, the EC50 at GABA-B receptor came to 637 nM.
Take `Cc1nc(N[C@@H]2C[C@H]3CC[C@@H]2C3)c2cc(-c3ccc(Cl)c(Cl)c3)ccc2n1`: the Stability was found to be 56% in [1], 74% in series [2] and 63% in series [3]. In addition, the EC50 at GABA-B receptor was 419 nM.
`Cc1nc(N[C@@H]2C[C@H]3CC[C@@H]2C3)c2cc(-c3ccc(C(F)(F)F)cc3)ccc2n1`: the Stability turned out to be 66% in [1], 66% in series [2] and 77% in series [3]. In addition, the EC50 on GABA-B receptor came out at 771 nM.
On to `Cc1nc(N[C@@H]2C[C@H]3CC[C@@H]2C3)c2cc(-c3cc(Cl)cc(Cl)c3)ccc2n1`, for which the Stability worked out at 62% in series [1], 44% in [2] and 37% in series [3]. The EC50 on GABA-B receptor amounted to 97 nM.
On the same counts, the results for `Cc1nc(N[C@@H]2C[C@H]3CC[C@@H]2C3)c2cc(-c3cccc(Cl)c3)ccc2n1` are 50%, 27%, 23% and 199 nM.
For the compound `Clc1nc(N[C@@H]2C[C@H]3CC[C@@H]2C3)c2cc(-c3ccc(Cl)c(Cl)c3)ccc2n1`, the Stability was determined as 69% in series [1], 67% in [2] and 59% in [3]. Further, the EC50 at GABA-B receptor was determined as 341 nM.
`Fc1ccc(-c2ccc3nc(Cl)nc(N[C@@H]4C[C@H]5CC[C@@H]4C5)c3c2)cc1`: the Stability is recorded as 47% in series [1], 53% in series [2] and 36% in [3]. The EC50 on GABA-B receptor was 294 nM.
As for `FC(F)(F)c1cccc(-c2ccc3nc(Cl)nc(N[C@@H]4C[C@H]5CC[C@@H]4C5)c3c2)c1`, the Stability in series [1] stood at 58%; in series [2], 63%; in [3], 67%. The EC50 on GABA-B receptor is 90 nM.
Take `Cc1nc(N[C@@H]2C[C@H]3CC[C@@H]2C3)c2cc(-c3ccccc3Cl)ccc2n1`: the Stability in series [1] was 57%; in [2], 23%; in series [3], 31%. Also, the EC50 at GABA-B receptor came out at 496 nM.
